{"source": "patent US10570129B2", "about": "(Zoetis Services LLC, priority 2015, dated 2020)", "key": {"Haemonchus contortus L3": {"system": "Haemonchus contortus L3", "experiment": "microbe, parasite or virus in culture", "type": "cell-based", "conditions": "Haemonchus contortus, 96 h, read-out: HcL3 Minimal Effective Concentration (MEC)"}, "D. immitis microfilariae": {"system": "D. immitis microfilariae", "experiment": "Dirofilaria immitis, microfilariae (DiMF) in vitro motility assay", "type": "cell-based", "conditions": "Dirofilaria immitis, 72 h, read-out: DiMF minimally effective dose (MEC)"}}, "data": [{"smiles": "O=C(NCc1ccnc(Cl)c1)n1c2c(c3cc(OC(F)(F)F)ccc31)CN(C/C=C/c1ccc(C(F)(F)F)cc1)CC2", "note": "[Example 396, (E)-N-((2-chloropyridin-4-yl)methyl)-8-(trifluoromethoxy)-2-(3-(4-(trifluoro-methyl)phenyl)allyl)-1,2,3,4-tetrahydro-5H-pyrido[4,3-b]indole-5-carboxamide]", "values": [{"measurement": "minimal effective concentration", "setting": "Haemonchus contortus L3", "value": 3.3, "unit": "µM"}, {"measurement": "minimal effective concentration", "setting": "D. immitis microfilariae", "value": 1, "unit": "µM"}]}, {"smiles": "O=C(NCc1ccnc(F)c1)n1c2c(c3cc(OC(F)(F)F)ccc31)CN(C/C=C/c1ccc(Cl)c(F)c1)CC2", "note": "[Example 401, (E)-2-(3-(4-chloro-3-fluorophenyl)allyl)-N-((2-fluoropyridin-4-yl)methyl)-8-(trifluoromethoxy)-1,2,3,4-tetrahydro-5H-pyrido[4,3-b]indole-5-carboxamide]", "values": [{"measurement": "minimal effective concentration", "setting": "Haemonchus contortus L3", "value": 0.5, "unit": "µM"}, {"measurement": "minimal effective concentration", "setting": "D. immitis microfilariae", "value": 18.2, "unit": "µM"}]}, {"smiles": "N#Cc1ccc(/C=C/CN2CCc3c(c4cc(OC(F)(F)F)ccc4n3C(=O)NCc3ccnc(F)c3)C2)cc1F", "note": "[Example 402, (E)-2-(3-(4-cyano-3-fluorophenyl)allyl)-N-((2-fluoropyridin-4-yl)methyl)-8-(trifluoromethoxy)-1,2,3,4-tetrahydro-5H-pyrido[4,3-b]indole-5-carboxamide]", "values": [{"measurement": "minimal effective concentration", "setting": "Haemonchus contortus L3", "value": 0.3, "unit": "µM"}, {"measurement": "minimal effective concentration", "setting": "D. immitis microfilariae", "value": 5.7, "unit": "µM"}]}, {"smiles": "O=C(NCc1ccnc(F)c1)n1c2c(c3cc(OC(F)(F)F)ccc31)CN(C/C=C/c1ccc(F)cc1F)CC2", "note": "[Example 403, (E)-2-(3-(2,4-difluorophenyl)allyl)-N-((2-fluoropyridin-4-yl)methyl)-8-(trifluoromethoxy)-1,2,3,4-tetrahydro-5H-pyrido[4,3-b]indole-5-carboxamide]", "values": [{"measurement": "minimal effective concentration", "setting": "Haemonchus contortus L3", "value": 0.3, "unit": "µM"}, {"measurement": "minimal effective concentration", "setting": "D. immitis microfilariae", "value": 18.2, "unit": "µM"}]}, {"smiles": "O=C(NCc1ccnc(F)c1)n1c2c(c3cc(OC(F)(F)F)ccc31)CN(C/C=C/c1ccc(F)c(Cl)c1)CC2", "note": "[Example 404, (E)-2-(3-(3-chloro-4-fluorophenyl)allyl)-N-((2-fluoropyridin-4-yl)methyl)-8-(trifluoromethoxy)-1,2,3,4-tetrahydro-5H-pyrido[4,3-b]indole-5-carboxamide]", "values": [{"measurement": "minimal effective concentration", "setting": "Haemonchus contortus L3", "value": 1, "unit": "µM"}, {"measurement": "minimal effective concentration", "setting": "D. immitis microfilariae", "value": 18.2, "unit": "µM"}]}, {"smiles": "O=C(NCc1ccnc(F)c1)n1c2c(c3cc(OC(F)(F)F)ccc31)CN(C/C=C/c1ccc(F)c(F)c1)CC2", "note": "[Example 405, (E)-2-(3-(3,4-difluorophenyl)allyl)-N-((2-fluoropyridin-4-yl)methyl)-8-(trifluoromethoxy)-1,2,3,4-tetrahydro-5H-pyrido[4,3-b]indole-5-carboxamide]", "values": [{"measurement": "minimal effective concentration", "setting": "Haemonchus contortus L3", "value": 0.3, "unit": "µM"}, {"measurement": "minimal effective concentration", "setting": "D. immitis microfilariae", "value": 5.7, "unit": "µM"}]}, {"smiles": "O=C(NCc1ccnc(F)c1)n1c2c(c3cc(OC(F)(F)F)ccc31)CN(C/C=C/c1cc(F)c(F)c(F)c1)CC2", "note": "[Example 406, (E)-N-((2-fluoropyridin-4-yl)methyl)-8-(trifluoromethoxy)-2-(3-(3,4,5-trifluorophenyl)allyl)-1,2,3,4-tetrahydro-5H-pyrido[4,3-b]indole-5-carboxamide]", "values": [{"measurement": "minimal effective concentration", "setting": "Haemonchus contortus L3", "value": 0.4, "unit": "µM"}, {"measurement": "minimal effective concentration", "setting": "D. immitis microfilariae", "value": 13.5, "unit": "µM"}]}, {"smiles": "O=C(NCc1ccnc(F)c1)n1c2c(c3cc(OC(F)(F)F)ccc31)CN(C/C=C/c1cc(F)cc(F)c1)CC2", "note": "[Example 407, (E)-2-(3-(3,5-difluorophenyl)allyl)-N-((2-fluoropyridin-4-yl)methyl)-8-(trifluoromethoxy)-1,2,3,4-tetrahydro-5H-pyrido[4,3-b]indole-5-carboxamide]", "values": [{"measurement": "minimal effective concentration", "setting": "Haemonchus contortus L3", "value": 1, "unit": "µM"}, {"measurement": "minimal effective concentration", "setting": "D. immitis microfilariae", "value": 5.7, "unit": "µM"}]}, {"smiles": "O=C(NCc1ccnc(F)c1)n1c2c(c3cc(OC(F)(F)F)ccc31)CN(C/C=C/c1ccc(Cl)cc1)CC2", "note": "[Example 408, (E)-2-(3-(4-chlorophenyl)allyl)-N-((2-fluoropyridin-4-yl)methyl)-8-(trifluoromethoxy)-1,2,3,4-tetrahydro-5H-pyrido[4,3-b]indole-5-carboxamide]", "values": [{"measurement": "minimal effective concentration", "setting": "Haemonchus contortus L3", "value": 1, "unit": "µM"}, {"measurement": "minimal effective concentration", "setting": "D. immitis microfilariae", "value": 10, "unit": "µM"}]}]}
